What was measured:
[1] = cited from earlier work
[2] = system: Vcam1, MCP1, Icam1 gene expression in suprarenal aorta; experiment: Real-time PCR gene expression in mouse suprarenal aorta; type: in vivo
Source text: FIG. 2. […] (A) Quantification of gene expression levels in the mice suprarenal aorta region by real-time PCR (n=3 to 4). (B, C) Serum cytokines levels measured by ELISA (n=8 to 11). (D) FACS of single cells isolated from the mice suprarenal aorta region. Each sample is the pool of cells from three mice (n=3). (E, F) Quantification of the percentage of CD45+ leukocytes and CD64+, CD11c+M1-like macrophages in total cells from the FACS analysis. Ordinary one-way ANOVA followed by Tukey's test was performed for (A), (E) and (F). For ELISA in (B) and (C), to avoid the effect of the non-detected data point, a non-parametric Kruskal-Wallis test followed by Dunn's multiple comparisons was performed by adding zero to the missing data point. Data presented as mean±SEM. A p<0.05 for both the main test and post hoc test was considered statistically significant.
Ten weeks old male C57BL/6J mice were purchased from The Jackson Laboratory. The murine AAA model induced by AngII/PCSK9 gain-of-function mutation is well-established. After acclimation for 1 week, mice were fed a western diet (TD.88137, Envigo) and intraperitoneally injected with 2×1011 genomic copies of AAV-PCSK9.D377Y (AAV serotype 8, Penn Vector Core). Two weeks later, each mouse was subcutaneously implanted with two osmotic pumps (Model #2004, Alzet). One was loaded with AngII (#H-1706, Bachem), releasing at a rate of 1,500ng/kg/min, while the other one was loaded with PEG-400, OA or NO2—OA at a delivery rate of 5 mg/kg/day for OA or NO2—OA. After 4-weeks infusion, mice were euthanized and the maximal outer diameter of the suprarenal aorta was assessed with a digital caliper by a third person blinded to the treatment. Suprarenal aortas with a maximal diameter ≥50% larger than standard size (≥1.2 mm) were considered as abdominal aortic aneurysms. […]
Mice suprarenal aortas were collected after the measurement of their diameter. […] Gene expression was quantified in triplicates by quantitative real-time PCR (qPCR) using IQ SYBR Green Supermix (#1708882, Bio-Rad) with the indicated gene primers.

[3] = system: p65 (NFκB); experiment: oxLDL-induced p65 nuclear translocation in BMDMs (western blot); type: cell-based, mouse; conditions: 2.5 μM pretreatment 1 h, oxLDL 50 μg/ml 1 h
Procedure: FIG. 3. NO2—OA prevents oxLDL-induced NFκB activation and pro-inflammatory cytokine production. Primary BMDMs were pretreated with vehicle, OA (2.5 μM) or NO2—OA (2.5 μM) for 1 h, followed by treatment of oxLDL (50 to 100 μg/ml) for the indicated times. (A, B) Nuclear (A) and cytoplasmic protein (B) fractions were isolated 1 h after oxLDL treatment and subjected to western blot with antibodies against p65, lamin a/c (nuclear marker) and GAPDH (cytosolic marker). Representative western blot images of three independent experiments are shown. (C) Quantification of the p65 nuclear to cytoplasmic ratio by image studio (normalized by the internal control, n=3). (D-F) Following 8 h of oxLDL treatment, levels of IL6, MCP1 and TNFα in the cell medium were measured by ELISA (n=4). (G) Real-time PCR quantification of gene expression levels of IL1b and Mmp9 in total mRNA extracted from the BMDMs. […]
Nuclear/cytoplasm protein extraction, co-Immunoprecipitation and immunoblotting NE-PER™ Nuclear and Cytoplasmic Extraction Reagents (#78835, ThermoFisher) were used for nuclear and cytoplasmic protein extraction. […] Membranes were blocked by 5% BSA and incubated with the primary antibody at 4° C. overnight followed by incubation with fluorescence conjugated secondary antibody for 1 h at room temperature. Band intensity was collected with the Odyssey® CLx Imaging System and quantified using Image Studio™ Lite.

CCCCCCCCC(=CCCCCCCCC(=O)O)[N+](=O)[O-] [NO2—OA, 10-nitro-octadec-9-enoic acid]
Nrf2-regulated genes and heat shock response in peripheral blood mononuclear cells ([1]; administration in humans): induces | circulating interleukin 6 (IL6) level ([1]; human volunteers): decreased | circulating monocyte chemoattractant protein 1 (MCP1) level ([1]; human volunteers): decreased | safety in Phase 1 human study ([1]; within a therapeutic window 25-450 mg/day): safe | expression of intercellular adhesion molecule 1 (Icam1) ([2]; vs vehicle): not statistically significant | expression of MCP1 gene ([2]; vs vehicle control): significantly decreased | expression of vascular cell adhesion protein 1 (Vcam1) gene ([2]; vs vehicle control): significantly decreased | p65 nuclear to cytoplasmic ratio [3]: 14.10±1.92
